The values that follow come from PubChem BioAssay (NCI).

Some test systems named below: NCI-H226 lung; M14 melanoma; MDA-MB-231 breast; MOLT-4 leukemia; CAKI-1 renal; SF-295 CNS; NCI-H460 lung; UACC-257 melanoma; T-47D breast; OVCAR-5 ovarian; HCT-116 colon; HOP-62 NSCLC; PC-3 prostate; OVCAR-4 ovarian; HCT-15 colon; SN12C renal; MDA-N; COLO 205 colon; IGROV1 ovarian; UO-31 renal.
What all share (assay): NCI anticancer screen, dose series, 48 h

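Grown in 96-well plates, cells were treated for 48 hours with each compound at five concentrations. Insufficient inhibition: endpoint recorded as highest concentration tested. TGI denotes the concentration required for complete inhibition of growth.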

Take `CC(=O)O[C@H]1[C@@H](OC(C)=O)C(C)(C)/C=C/[C@H](C)C(=O)[C@@]2(OC(C)=O)C[C@@](C)(OC(C)=O)[C@H](OC(C)=O)[C@@H]2[C@H]2OC(=O)CC[C@@]2(OC(=O)c2ccccc2)[C@@H]1OCC(C)C`: the TGI with NCI-H226 lung, with M14 melanoma, with MDA-MB-231 breast, in the assay with MOLT-4 leukemia, in the assay with CAKI-1 renal and with SF-295 CNS was greater than 100 µM each time. Besides, the TGI was greater than 100 µM with NCI-H460 lung; greater than 100 µM in the assay on UACC-257 melanoma; greater than 100 µM with T-47D breast; greater than 100 µM with OVCAR-5 ovarian; 65.2 µM in the assay on HCT-116 colon; greater than 100 µM in the assay with HOP-62 NSCLC. In addition, the TGI in the assay with PC-3 prostate, with OVCAR-4 ovarian, with HCT-15 colon, in the assay on SN12C renal, with MDA-N and with COLO 205 colon was greater than 100 µM each time. The TGI in the assay with IGROV1 ovarian and with UO-31 renal was greater than 100 µM in each case.

As for `CSCCC(NC(=O)OCc1ccccc1)NC(=O)OCc1ccccc1`, the TGI with NCI-H226 lung, in the assay with M14 melanoma, with MDA-MB-231 breast, in the assay on MOLT-4 leukemia, in the assay with CAKI-1 renal and in the assay with SF-295 CNS was greater than 100 µM in each case. In addition, the TGI with NCI-H460 lung, in the assay on UACC-257 melanoma, in the assay on T-47D breast, in the assay on OVCAR-5 ovarian, in the assay with HCT-116 colon and with HOP-62 NSCLC was greater than 100 µM in each case. Further, the TGI in the assay on PC-3 prostate, in the assay on OVCAR-4 ovarian, in the assay on HCT-15 colon, in the assay with SN12C renal, in the assay on MDA-N and in the assay with COLO 205 colon was greater than 100 µM in each case. Besides, the TGI in the assay with IGROV1 ovarian and with UO-31 renal was greater than 100 µM each time.
